Series [1] relates to Hsp70 promoter. The experiment in a line: Hsp promoter probing, Hsp70 promoter-YFP reporter, flow cytometry (Table 3). It is filed as cell-based, mouse and human. More on the design: key: +: co-inducing activity; −: silencing activity; 0: with the experimental methods applied no other HSP modulating effects could be identified. Particulars: heat shock 42° C. 1 h, 16 h recovery; B16 or SHSY5Y reporter cells, cell line per value not stated. As for the experimental part:
(§1) The Hsp co-inducing effect of the compounds on stress response was tested on B16 mouse melanoma and SHSY5Y human neuroblastoma cell lines stably transfected with Hsp promoter probing plasmids. This kind of promoter probing, using the promoter region of a given gene conjugated with fluorescent protein is used as a best and fastest test system for finding drugs which modulate the activity of the gene followed by the given promoter (Wyshocka et al., Mol. Cel. Biochem. 215:153-156, 2000).
The Hsp encoding genes are transactivated through the binding of HSF to the heat shock element found on the DNA upstream of the Hsp genes, in the so called promoter region. In the absence of heat stress, the heat shock factors are present as monomers. Upon heat stress, however, the heat shock factors form trimers, which are the active components, able to bind to heat shock elements. Once HSF is bound to the heat shock element in the promoter of Hsp genes, the gene following the promoter region is transcriptionally active.
(§2) Reporter plasmids, containing the Hsp70 and/or Hsp25 promoter conjugated to either YFP or GFP (yellow or green fluorescent protein), were stably transfected into the cells and the expression of YFP or GFP was followed by flow cytometry. Cells were either kept at 37° C. or exposed to heat shock at 42° C. for 1 hour followed by a 16 hour recovery period at 37° C. in the presence or absence of different concentrations of the test compound. After recovery the expression of YFP or GFP which is in straight correlation with the promoter activity of Hsp70 or Hsp27 genes was followed by measuring the fluorescence intensity of the cells by flow cytometry. Fluorescence intensity is in straight correlation with the amount of fluorescent protein (GFP or YFP) produced under the control of hsp promoter. The mean fluorescence intensity of YFP or GFP produced is shown as “Hsp promoter activity”.
Cells were homogenously distributed on 6-well plates in 1×10^5 cells/well density. B16-pHsp25-GFP and B16-pHsp70-YFP melanoma cells were grown in RPMI-1640 medium supplemented with 10% Fetal bovine serum (FBS), penicillin (200 units/ml), streptomycin (200 μg/ml) and 2 mM L-Glutamine. For maintaining the SH-SY5Y-pHsp25-GFP and SH-SY5YpHsp70-YFP neuroblastoma cell lines Dulbecco's modified Eagle's medium (DMEM-F-12) containing 10% FBS, 2 mM L-Glutamine, penicillin (200 units/ml), streptomycin (200 μg/ml) and MEM non-essential amino acids were used. Before the treatments both cell lines were incubated at 37° C. in a saturated humidity atmosphere containing 95% air and 5% CO2. After 24 h incubation cells were pretreated with compounds of the invention in four different concentrations (usually in 3; 10; 20 and 50 μM) 30 min before the heat shock at 42° C. for 1 h and then incubated further at 37° C. for 16 h (recovery period). After this procedure cells were trypsinized and suspensed in 500 μl serum-free DMEM-F12 medium. The changes in cells' fluorescence were detected using BD FACSCalibur flow cytometer.
(In general: A flow cytometer gives signals particle by particle.)

The next series deals with other Hsps. Briefly: Other in vitro HSP modulating effects (Table 3). It is filed as cell-based, mouse and human. More on the design: key: +: co-inducing activity; −: silencing activity; 0: with the experimental methods applied no other HSP modulating effects could be identified.
In another series the test system is Zucker obese rat. Briefly: Insulin resistance, Zucker obese rat. In kind it is in vivo. As for the experimental part:
Insulin sensitizing activity of the compounds was tested in Zucker obese rat at three doses (10, 30 and 100 mg/kg), 6 weeks old Zucker obese (ZO) rats were adapted for a week before the administration of the compound. The animals were treated once a day for 5 days with compound Ex. 1 with 10, 30 and 100 mg/kg dose by stomach probe. The control group was treated with Klucel solution. The animals were kept in metabolic cage during the experiment, their food and drink consumption, the amount of urine and faeces was determined daily.
At the end of the treatment period the animals were fasted for 16 hours, the fasting plasma glucose level was determined. At the end the animals were sacrificed and different organs were taken for Hsp measurement.

The test system of the next series is Hsp25 promoter. Briefly: Hsp25 promoter-GFP reporter in SHSY5Y cells, flow cytometry. In kind it is cell-based, human. As for the experimental part: as §1, §2
The fluorescence intensity of GFP and YFP […].
Selectivity of the Hsp25 co-inducing activity of compound of Ex. 11 is shown on FIG. 3. […] The fluorescence intensity of GFP produced as a result of Hsp25 promoter activity was measured by flow cytometry.
(§3) Cells were homogenously distributed on 6-well plates in 1×10^5 cells/well density. B16-pHsp25-GFP and B16-pHsp70-YFP melanoma cells were grown in RPMI-1640 medium supplemented with 10% Fetal bovine serum (FBS), penicillin (200 units/ml), streptomycin (200 μg/ml) and 2 mM L-Glutamine. […] The changes in cells' fluorescence were detected using BD FACSCalibur flow cytometer.

The subject of a further series is Hsp25. Briefly: Other in vitro effects, Hsp25 (Table 3). In kind it is cell-based, mouse and human. More on the design: key: +: co-inducing activity; −: silencing activity; 0: with the experimental methods applied no other HSP modulating effects could be identified. As for the experimental part: as §1, §2, §3
SY-SY5Y and B16 cells were extracted in NP-40 lysis buffer (PBS pH 7.4, 1% protease inhibitor coctail and 1% Triton X-100). […] The immune complexes were detected with chemo-luminescent substrate of peroxidase according to the supplier's instructions. Images taken from the membranes were analyzed using AlphaEase FC software.

Another series deals with B16 melanoma cells. The experiment in a line: Experimental metastatic melanoma, B16 cells i.v. in C57Bl/6 mice. In kind it is in vivo, mouse. As for the experimental part: The anticancer activity was tested in C57Bl/6 mouse (B6), the best known syngeneic mouse model of experimental metastatic melanoma. C57Bl/6 mice injected with B16 melanoma cells subcutaneously or intramuscularly develop primary tumors that, in a part of the recipients, give rise to lung metastases. When the B16 cells are injected intravenously via the tail vein, a fraction of the tumor cells homes directly in the lung, where they develop into multiple independent tumor nodules termed “experimental metastases”. Although lung tumors are the most prominent, brain, liver and kidney tumors are also detectable in intravenously injected mice. Since the behavior of the tumor-bearing mice is quite uniform, the model is suitable for simultaneous testing of high numbers of drug candidates in a limited number of experimental animals.
The in vivo tumor experiments were performed with cultured B16 cells that were previously re-isolated from lung metastatic nodules, therefore their metastatic potential was kept optimal. The tumor cells liberated from the tumor mass by trypsin digestion were expanded in cell culture and stored in aliquots in liquid nitrogen, while the number of in vitro passages was kept to a minimum. In the experiments, B6 mice were injected with 100 000 B16 melanoma cells i.v. via the tail vein. The drug candidates were dissolved in physiological saline then they were administered i.p. in a volume of 100 ul. Daily treatment of tumor bearing mice started at day 7 after the tumor injection. The body weight of the mice was measured at day 1, 7, 14 and 21. The survival of the tumor bearing mice was recorded daily. All experiments were performed in accordance with national and European animal welfare guidelines. To prevent unnecessary suffering, moribund mice were euthanized.

The next series is described as follows: Acute toxicity (LD50). Particulars: in vivo.
Series [2] relates to Hsp70 promoter. Briefly: Hsp70 promoter-YFP reporter in B16 F-10 melanoma cells, flow cytometry. It is filed as cell-based, mouse. Particulars: stress induced, FIG. 4. As for the experimental part: as §1
Reporter plasmids, containing the Hsp70 and/or Hsp25 promoter conjugated to either YFP or GFP (yellow or green fluorescent protein), were stably transfected into the cells and the expression of YFP or GFP was followed by flow cytometry. […] After recovery the expression of YFP or GFP which is in straight correlation with the promoter activity of Hsp70 or Hsp27 genes was followed by measuring the fluorescence intensity of the cells by flow cytometry. Fluorescence intensity is in straight correlation with the amount of fluorescent protein (GFP or YFP) produced under the control of hsp promoter. The mean fluorescence intensity of YFP or GFP produced is shown as “Hsp promoter activity”.
Some of the compounds are Hsp70 selective stress protein response silencers as shown on FIG. 4. […] The fluorescence intensity of YFP produced as a result of Hsp70 promoter activity was measured by flow cytometry. […]

The subject of the next series is Ca^2+ channel. Briefly: Hsp modulating versus Ca2+ antagonist effect.
In another series the test system is B16F10 melanoma cells. Briefly: Vincristine cytotoxicity in combination, B16F10 melanoma cells. The following applies: Mus musculus, read-out: IC50 of VR (50% inhibition of cell growth). In kind it is cell-based. As for the experimental part: Cells were homogenously distributed on 96-well plates in 5×10^3 cells/well density then incubated for 24 h at 37° C. On the next day cells were treated with compounds of the invention in 100 nM-200 μM concentration range for 24 h. The viability of the cells were measured using alamarBlue® assay kit according to the supplier's instructions.
The rationale for combination chemotherapy is to use drugs that work by different mechanisms of action, thereby decreasing the likelihood that resistant cancer cells will develop.

The mark [3] stands for this setting: model in which efficacy was shown.

The structures appear in SMILES notation. Where a name gives a salt, the structure may show the parent alone. Read-outs that look alike come from different tables or passages of the source. Marks after values point to notes of the source that are not given here.

In the case of `COC(=O)C1=C(C)N(C)C(C)=C(C(=O)OC)C1c1ccc(C(F)(F)F)cc1` [Example 1, Dimethyl 1,2,6-trimethyl-4-(4-trifluoromethylphenyl)-1,4-dihydropyridine-3,5-dicarboxylate], the melting point is 159 to 160 °C. Also, the Hsp70 modulation result in the series on Hsp70 promoter [1] was “+*”. Besides, the “Other in vitro effects” value in the series with other Hsps was 0****. The “fasting plasma glucose level” value in the series with Zucker obese rat (10, 30 and 100 mg/kg once a day for 5 days by stomach probe, 16 h fasted, FIG. 5A) is “improved fasting plasma glucose level”. The “Hsp70 amount in brown adipose tissue” value in the series with Zucker obese rat (10, 30 and 100 mg/kg once a day for 5 days, Western blot, FIG. 5B) was “elevated Hsp70 amount in brown adipose tissue”. The In vivo efficacy result in the series on Zucker obese rat (setting [3]) is listed as “Insulin resistance”.

In the case of `CCN1C(C)=C(C(=O)OC)C(c2ccc(C(F)(F)F)cc2)C(C(=O)OC)=C1C` [Example 11, Dimethyl 1-ethyl-2,6-dimethyl-4-(4-trifluoromethylphenyl)-1,4-dihydropyridine-3,5-dicarboxylate], the melting point was in the range of 135 to 137 °C. Also, the “activity of the promoter of the Hsp25 gene at 37° C.” value in the series on Hsp25 promoter (37° C.) was “does not affect the activity of the promoter of the Hsp25 gene at 37 °C”. In addition, in the series on Hsp25 promoter (heat stress, FIG. 3), the Hsp25 co-inducing activity result is listed as “strong, concentration dependent co-inducer for Hsp25 stress protein”. Further, the “Other in vitro effects: Hsp25” value in the series on Hsp25 is “Hsp25+”.

`COC(=O)C1=C(CCN2CCCCC2)N(C)C(CCN2CCCCC2)=C(C(=O)OC)C1c1ccc(C(F)(F)F)cc1` [Example 17, Dimethyl 1-methyl-2,6-bis-(2-piperidin-1-yl-ethyl)-4-(4-trifluoromethylphenyl)-1,4-dihydropyridine-3,5-dicarboxylate dihydrochloride]: the “Other in vitro effects: Hsp25” value with Hsp25 is recorded as “Hsp25 0”. In addition, the entries for the “Increase in life span” value with B16 melanoma cells (1 mg/kg i.p. daily from day 7 to day 18), in the series on B16 melanoma cells (3 mg/kg i.p. daily from day 7 to day 18) and in the series with B16 melanoma cells (10 mg/kg i.p. daily from day 7 to day 18) were 23.1%, 40.8% and 53.7%, respectively. The Mean survival time amounted to 31.0 ± 3.7 days in the series on B16 melanoma cells (1 mg/kg i.p. daily from day 7 to day 18, FIG. 8); 35.55 ± 3.80 days in the series on B16 melanoma cells (3 mg/kg i.p. daily from day 7 to day 18, FIG. 8); 38.10 ± 10.45 days in the series with B16 melanoma cells (10 mg/kg i.p. daily from day 7 to day 18, FIG. 8). In addition, the “drug-related mortality and weight loss” value with B16 melanoma cells (10 mg/kg i.p. daily, tumor bearing mice) is “did not produce drug-related mortality and statistically significant drug related weight loss”. In addition, the In vivo efficacy entry in the series on B16 melanoma cells (setting [3]) is listed as “Cancer mono-”. Besides, the LD50 in “Acute toxicity (LD50)” amounted to 150 mg/kg.

In turn, `CCC1=C(C(=O)OC)C(c2ccc(C(F)(F)F)cc2)C(C(=O)OC)=C(CC)N1C` [Example 27, Dimethyl 2,6-diethyl-1-methyl-4-(triflouromethyl-phenyl)-1,4-dihydropyridine-3,5-dicarboxylate] showed a melting point of 136 to 138 °C. In addition, the Hsp70 silencer activity result in the series with Hsp70 promoter [2] is “strong concentration dependent silencer for stress induced Hsp70 gene activity”. The Ca antagonist effect entry in the series on Ca^2+ channel was “no Ca antagonist effect”. Also, in the series with B16F10 melanoma cells (B16-F10, VR with Ex 27 at 10 μM), the IC50 was 400 pM.

Consider `COC(=O)C1=C(C#N)NC(C)=C(C(=O)OC(C)C)C1c1cccc([N+](=O)[O-])c1` (centres unmarked) [Nilvadipine, reference compound], for which the “index of EC50 HSP-modulating/Ca^2+ antagonist effect” value in the series with Ca^2+ channel is given as “about 1”.

On to `CC[C@]1(O)C[C@H]2CN(CCc3c([nH]c4ccccc34)[C@@](C(=O)OC)(c3cc4c(cc3OC)N(C=O)[C@H]3[C@@](O)(C(=O)OC)[C@H](OC(C)=O)[C@]5(CC)C=CCN6CC[C@]43[C@@H]65)C2)C1` [VR, vincristine, reference compound], for which, in the series with B16F10 melanoma cells (B16-F10, VR treatment alone), the IC50 was 1300 pM.

By melting point is commonly meant the temperature, or range, at which the solid turns liquid. By LD50 is commonly meant the dose at which mortality reaches 50%. As a reminder, the IC50 is the concentration that gives 50% inhibition.

Values taken from US10660789B2, “1,4-dihydropyridine derivatives with HSP modulating activity” (Richter Gedeon NYRT., priority 2011, dated 2020).
